Reference: patent US11186564B2, “Dual NAV1.2/5HT2a inhibitors for treating CNS disorders” (Sunovion Pharmaceuticals Inc., priority 2016, dated 2021)
Where a name gives a salt, the structure may show the parent alone.

Legend:
[1] = target: T1, recombinant human serotonin receptor 5-HT2A (Homo sapiens, UniProt P28223); test: 5-HT2A antagonist Ca2+ assay in CHO-K1 cells (method A aequorin luminescence / method B FLIPR fluorescence); assay type: cell-based; conditions: antagonist mode vs EC80 of reference agonist, method A or B, read-out: 5HT2A IC50
T1 construct: expressed in transfected cells; method B: loaded with Ca2+ dye
T1 sequence (P28223 whole entry): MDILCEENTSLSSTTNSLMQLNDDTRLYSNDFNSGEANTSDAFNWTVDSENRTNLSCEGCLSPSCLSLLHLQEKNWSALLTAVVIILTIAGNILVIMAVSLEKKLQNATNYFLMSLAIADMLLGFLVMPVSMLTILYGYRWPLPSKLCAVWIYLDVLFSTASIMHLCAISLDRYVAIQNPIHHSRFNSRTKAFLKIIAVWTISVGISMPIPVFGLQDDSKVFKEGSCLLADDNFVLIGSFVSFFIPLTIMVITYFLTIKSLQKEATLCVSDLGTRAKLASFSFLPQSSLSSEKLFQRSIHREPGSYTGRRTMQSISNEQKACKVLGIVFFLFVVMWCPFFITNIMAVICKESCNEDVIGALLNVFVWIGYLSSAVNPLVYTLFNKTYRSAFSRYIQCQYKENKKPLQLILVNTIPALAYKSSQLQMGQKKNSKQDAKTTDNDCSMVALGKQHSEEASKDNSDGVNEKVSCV
Procedure, shortened: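 Method A: CHO-K1 cells co-expressing human 5-HT2A and mitochondrial apoaequorin were given reference agonist at EC80 15 min after compound, with luminescence read. Method B: dye-loaded 5-HT2A CHO-K1 cells were pretreated with compound, then given serotonin at EC80, with FLIPR fluorescence read. IC50s came from nonlinear fits of percent inhibition.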

[2] = target: human sodium channel NaV1.2 (Homo sapiens, UniProt Q99250); test: NaV1.2 inhibition, automated patch-clamp (Q-Patch HTX), slow inactivated state (state C); assay type: cell-based; conditions: hNaV1.2 CHO cells, slow inactivated state; for IC50: read-out: NaV1.2 IC50; for inhibition at 1 µM: 1 μM compound, read-out: NaV1.2 (% inh), 1 μM; for inhibition at 10 µM: 10 μM compound, read-out: NaV1.2 (% inh), 10 μM
Chain of human sodium channel NaV1.2 (Q99250 whole entry): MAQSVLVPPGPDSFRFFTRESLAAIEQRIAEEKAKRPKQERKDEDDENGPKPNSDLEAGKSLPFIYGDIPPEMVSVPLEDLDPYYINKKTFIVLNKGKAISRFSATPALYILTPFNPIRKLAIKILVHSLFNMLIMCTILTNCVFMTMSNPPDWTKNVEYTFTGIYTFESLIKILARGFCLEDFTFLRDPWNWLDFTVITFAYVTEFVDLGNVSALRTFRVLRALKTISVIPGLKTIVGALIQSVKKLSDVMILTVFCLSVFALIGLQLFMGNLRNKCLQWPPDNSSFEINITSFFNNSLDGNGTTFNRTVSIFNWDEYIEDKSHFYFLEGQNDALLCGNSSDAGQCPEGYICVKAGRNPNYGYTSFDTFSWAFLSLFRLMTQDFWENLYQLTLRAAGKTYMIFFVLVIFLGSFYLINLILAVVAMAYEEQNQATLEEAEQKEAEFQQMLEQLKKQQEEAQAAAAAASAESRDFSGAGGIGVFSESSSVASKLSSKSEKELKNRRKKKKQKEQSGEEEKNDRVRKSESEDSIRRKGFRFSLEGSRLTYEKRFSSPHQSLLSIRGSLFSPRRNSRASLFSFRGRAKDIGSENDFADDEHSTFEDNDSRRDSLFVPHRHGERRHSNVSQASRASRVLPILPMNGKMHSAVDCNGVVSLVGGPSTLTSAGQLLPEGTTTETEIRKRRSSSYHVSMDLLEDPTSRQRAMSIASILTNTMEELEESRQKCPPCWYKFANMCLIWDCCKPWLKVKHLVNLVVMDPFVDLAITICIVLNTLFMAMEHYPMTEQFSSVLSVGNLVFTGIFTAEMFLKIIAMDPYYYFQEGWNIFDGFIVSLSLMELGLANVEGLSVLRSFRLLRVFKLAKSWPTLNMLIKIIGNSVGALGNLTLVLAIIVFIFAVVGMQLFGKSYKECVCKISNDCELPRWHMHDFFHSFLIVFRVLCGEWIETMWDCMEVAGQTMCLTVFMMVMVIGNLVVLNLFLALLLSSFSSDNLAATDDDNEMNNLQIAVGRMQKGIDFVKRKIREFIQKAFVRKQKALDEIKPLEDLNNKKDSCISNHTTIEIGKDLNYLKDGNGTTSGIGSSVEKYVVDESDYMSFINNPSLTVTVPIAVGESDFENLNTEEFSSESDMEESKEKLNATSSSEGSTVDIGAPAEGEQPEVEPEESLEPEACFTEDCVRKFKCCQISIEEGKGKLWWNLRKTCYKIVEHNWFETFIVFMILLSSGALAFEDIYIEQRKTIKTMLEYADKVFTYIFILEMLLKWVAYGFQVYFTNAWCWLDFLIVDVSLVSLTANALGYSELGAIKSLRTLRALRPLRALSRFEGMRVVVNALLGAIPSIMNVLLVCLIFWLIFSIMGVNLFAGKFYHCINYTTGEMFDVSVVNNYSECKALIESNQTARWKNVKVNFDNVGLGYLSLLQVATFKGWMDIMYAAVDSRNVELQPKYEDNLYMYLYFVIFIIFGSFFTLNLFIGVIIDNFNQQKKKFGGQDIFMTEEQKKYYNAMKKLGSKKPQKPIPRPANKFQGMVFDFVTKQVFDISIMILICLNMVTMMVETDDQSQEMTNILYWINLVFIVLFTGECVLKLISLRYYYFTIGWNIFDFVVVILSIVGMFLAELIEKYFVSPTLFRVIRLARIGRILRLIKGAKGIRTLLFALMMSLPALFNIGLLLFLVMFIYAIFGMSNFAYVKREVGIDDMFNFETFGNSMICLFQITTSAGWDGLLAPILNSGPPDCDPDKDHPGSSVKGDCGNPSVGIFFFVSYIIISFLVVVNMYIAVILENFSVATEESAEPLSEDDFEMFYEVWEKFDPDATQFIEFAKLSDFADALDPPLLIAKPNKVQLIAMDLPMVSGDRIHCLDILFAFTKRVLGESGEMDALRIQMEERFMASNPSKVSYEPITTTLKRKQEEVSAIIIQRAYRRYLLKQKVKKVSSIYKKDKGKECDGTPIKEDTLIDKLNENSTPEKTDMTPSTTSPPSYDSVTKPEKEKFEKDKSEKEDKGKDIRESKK
Procedure, shortened: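 CHO K-1 cells stably expressing human NaV1.2, whole-cell automated patch clamp, holding −100 mV; slow-inactivated state (state C) read at a 5 ms step to 0 mV after 10 s at −50 mV and 15 ms at −90 mV. Percent inhibition vs vehicle; IC50 by nonlinear least-squares fit.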

IC50 [1]	inhibition at 1 µM [2]	inhibition at 10 µM [2]	Structure (SMILES)	IC50 [2]
1110 nM	5%	–	Fc1ccc(OC2CCN(CCC3CCOCC3)CC2)cc1 [Example 170, 4-(4-fluorophenoxy)-1-(2-(tetrahydro-2H-pyran-4-yl)ethyl)piperidine]	–
170 nM	35%	–	Fc1ccc(OC2CCN(CC3Cc4ccccc4C3)CC2)cc1 [Example 154, 1-((2,3-dihydro-1H-inden-2-yl)methyl)-4-(4-fluorophenoxy)piperidine]	–
> 5300 nM	–	48%	OC(COC1CCCCC1)CN1C[C@H]2C[C@@H]1CN(Cc1ccccc1)C2 (stereo partly drawn) [Example 318, 1-((1S,5R)-3-benzyl-3,6-diazabicyclo[3.2.1]octan-6-yl)-3-(cyclohexyloxy)propan-2-ol]	–
5280 nM	5%	–	c1ccc(N2C[C@@H]3CC[C@H]2CN3CCC2COCc3ccccc32)cc1 (stereo partly drawn) [Example 315, (1S,4S)-2-(2-(isochroman-4-yl)ethyl)-5-phenyl-2,5-diazabicyclo[2.2.2]octane]	–
890 nM	–	55%	O=C(CN1CCN(c2cccc(Cl)c2)CC1)c1ccccc1 [Example 66, 2-(4-(3-chlorophenyl)piperazin-1-yl)-1-phenylethan-1-one]	–
230 nM	44%	–	Fc1ccc(OC2CCCN(CC3CCc4ccccc43)CC2)cc1 (centres unmarked) [Example 271, 1-((2,3-dihydro-1H-inden-1-yl)methyl)-4-(4-fluorophenoxy)azepane]	–
90 nM	32%	–	COc1ccccc1OC1CCN(CC2CCOc3ccccc32)CC1 (centres unmarked) [Example 162, 1-(chroman-4-ylmethyl)-4-(2-methoxyphenoxy)piperidine]	–
290 nM	-1%	–	CC1(C)Oc2ccccc2C1CN1CCC(Oc2ccccc2)CC1 (centres unmarked) [Example 131, 1-((2,2-dimethyl-2,3-dihydrobenzofuran-3-yl)methyl)-4-phenoxypiperidine]	–
190 nM	–	86%	COc1ccccc1CCN1CCC2(CCc3ccccc3O2)CC1 [Example 428, 1′-(2-methoxyphenethyl) spiro[chromane-2,4′-piperidine]]	–
150 nM	9%	–	COc1ccc2c(c1)C(CN1CCC(Oc3ccccn3)CC1)CC2 (centres unmarked) [Example 95, 2-((1-((6-methoxy-2,3-dihydro-1H-inden-1-yl)methyl)piperidin-4-yl)oxy)pyridine]	–
2 nM	–	–	COc1ccc2c(c1)C(CN1CCC(Oc3ccc(F)cc3)CC1)CC2 (centres unmarked) [Example 113, 4-(4-fluorophenoxy)-1-((6-methoxy-2,3-dihydro-1H-inden-1-yl)methyl)piperidine hydrochloride]	550 nM
250 nM	–	88%	COc1cccc(CCCN2CCC(Oc3ccccc3)CC2)c1 [Example 225, 1-(3-(3-methoxyphenyl)propyl)-4-phenoxypiperidine]	–
90 nM	13%	–	O=C1CCC(c2ccc(F)cc2)=NN1CN1CCC(Oc2ccc(F)cc2)CC1 [Example 167, 2-((4-(4-fluorophenoxy)piperidin-1-yl)methyl)-6-(4-fluorophenyl)-4,5-dihydropyridazin-3(2H)-one]	–
220 nM	6%	–	c1ccc2c(c1)CCC1(CCN(CCC3Cc4cccnc4C3)CC1)O2 (centres unmarked) [Example 419, 1′-(2-(6,7-dihydro-5H-cyclopenta[b]pyridin-6-yl)ethyl)spiro[chromane-2,4′-piperidine]]	–
140 nM	–	53%	O[C@H](CCN1CCC(Oc2ccccc2)CC1)c1ccccc1 [Example 227, (R)-3-(4-phenoxypiperidin-1-yl)-1-phenylpropan-1-ol]	–
174 nM	–	62%	COc1ccc(OC2CCN(CCN3CCc4ccccc4C3=O)CC2)cc1 [Example 202, 2-(2-(4-(4-methoxyphenoxy)piperidin-1-yl)ethyl)-3,4-dihydroisoquinolin-1(2H)-one]	–
70 nM	14%	–	O=C1c2ccccc2CN1CCN1CCC(Oc2ccc(F)cc2)CC1 [Example 187, 2-(2-(4-(4-fluorophenoxy)piperidin-1-yl)ethyl)isoindolin-1-one]	–
10 nM	–	48%	COc1ccc2c(c1)CCCN(CCN1CCC(Oc3ccc(F)cc3)CC1)C2=O [Example 212, 2-(2-(4-(4-fluorophenoxy)piperidin-1-yl)ethyl)-7-methoxy-2,3,4,5-tetrahydro-1H-benzo[c]azepin-1-one]	–
610 nM	11%	–	O=C1Nc2ccccc2CC12CCN(C[C@@H](O)COc1ccccc1)CC2 [Example 446, (R)-1-(2-hydroxy-3-phenoxypropyl)-1′,4′-dihydro-2′H-spiro[piperidine-4,3′-quinolin]-2′-one]	–
> 4200 nM	–	21%	OC(COC1CCCCC1)CN1CCN(Cc2ccccc2)CC1 (centres unmarked) [Example 75, 1-(4-benzylpiperazin-1-yl)-3-(cyclohexyloxy)propan-2-ol]	–

Continued, compound first:

Structure (SMILES)	IC50 [1]	inhibition at 1 µM [2]	inhibition at 10 µM [2]	IC50 [2]
c1ccc(C2COC3(CCN(CC4CCc5ccccc54)CC3)C2)cc1 (single isomer, unassigned) [Example 375, 8-((2,3-dihydro-1H-inden-1-yl)methyl)-3-phenyl-1-oxa-8-azaspiro[4,5]decane]	260 nM	–	–	350 nM
OC(COC1CCCCC1)CN1C[C@@H]2CC[C@H]1CN2c1ccccc1 (stereo partly drawn) [Example 317, 1-(cyclohexyloxy)-3-((1S,4S)-5-phenyl-2,5-diazabicyclo[2.2.2]octan-2-yl)propan-2-ol]	490 nM	–	–	1830 nM
O=C1c2ccc(Br)cc2CCCN1CCN1CCC(Oc2ccc(F)cc2)CC1 [Example 213, 7-bromo-2-(2-(4-(4-fluorophenoxy)piperidin-1-yl)ethyl)-2,3,4,5-tetrahydro-1H-benzo[c]azepin-1-one]	80 nM	–	–	180 nM
c1ccc2c(c1)COC1(CCN(CC3CCc4ccccc43)CC1)C2 (centres unmarked) [Example 443, l′-((2,3-dihydro-1H-inden-1-yl)methyl)spiro[isochromane-3,4′-piperidine]]	220 nM	–	–	3370 nM
OC(COC1CCCc2ccccc21)CN1CCN(Cc2ccccc2)CC1 (centres unmarked) [Example 83, 1-(4-benzylpiperazin-1-yl)-3-((1,2,3,4-tetrahydronaphthalen-1-yl)oxy) propan-2-ol]	2870 nM	–	–	20 nM
OC(CO[C@H]1CCc2ccccc21)CN1CC[C@@H](Oc2ccc(F)cc2)C1 (stereo partly drawn) [Example 42, 1-(((S)-2,3-dihydro-1H-inden-1-yl)oxy)-3-((R)-3-(4-fluorophenoxy)pyrrolidin-1-yl)propan-2-ol]	830 nM	–	–	750 nM
c1ccc(O[C@@H]2COC3(C2)CN(C[C@@H]2CCc4ccccc42)C3)cc1 (single isomer, unassigned) [Compound 364]	80 nM	–	–	690 nM
Cc1cccc(N2CCN(CC(O)COC3COc4cccnc43)CC2)c1C (centres unmarked) [Example 82, 1-((2,3-dihydrofuro[3,2-b]pyridin-3-yl)oxy)-3-(4-(2,3-dimethylphenyl)piperazin-1-yl)propan-2-ol]	40 nM	–	–	1350 nM
COc1ccccc1OC1CCN(CC2CCc3ccccc32)CC1(C)C (centres unmarked) [Example 103, 1-((2,3-dihydro-1H-inden-1-yl)methyl)-4-(2-methoxyphenoxy)-3,3-dimethylpiperidine]	220 nM	–	–	3130 nM
c1ccc(O[C@@H]2COC3(CCN(C[C@@H]4CCc5ccccc54)CC3)C2)cc1 (single isomer, unassigned) [Compound 383]	340 nM	–	–	110 nM
O=C1c2ccccc2CCN1CCN1CCN(c2ccccc2)CC1 [Example 63, 2-(2-(4-phenylpiperazin-1-yl)ethyl)-3,4-dihydroisoquinolin-1(2H)-one]	450 nM	16%	–	–
O=C1CC2(CCN(CC3CCc4ccccc43)C2)Oc2ccccc21 (centres unmarked) [Example 388, 1′-((2,3-dihydro-1H-inden-1-yl)methyl)spiro[chromane-2,3′-pyrrolidin]-4-one]	220 nM	–	–	1750 nM
Cc1cccc(N2CCN(CC3COCc4ccccc43)CC2)c1C (centres unmarked) [Example 57, 1-(2,3-dimethylphenyl)-4-(isochroman-4-ylmethyl)piperazine]	100 nM	–	83%	–
O[C@H](CO[C@@H]1CCc2ccccc21)CN1CC[C@@H](Oc2ccc(F)cc2)C1 [Example 46, (S)-1-(((R)-2,3-dihydro-1H-inden-1-yl)oxy)-3-((R)-3-(4-fluorophenoxy)pyrrolidin-1-yl)propan-2-ol]	30 nM	41%	–	–
Fc1ccc(OC2CCN(CCC3CCc4cnccc43)CC2)cc1 (centres unmarked) [Example 173, 5-(2-(4-(4-fluorophenoxy)piperidin-1-yl)ethyl)-6,7-dihydro-5H-cyclopenta[c]pyridine]	10 nM	–	–	3170 nM
Fc1ccc(O[C@@H]2CCCN(CC3CCc4ccccc43)C2)cc1 (stereo partly drawn) [Example 253, (3R)-1-((2,3-dihydro-1H-inden-1-yl)methyl)-3-(4-fluorophenoxy) piperidine]	1170 nM	21%	–	–
O[C@H](COC1CCCCC1)CN1CC2(CC(c3ccccc3)CO2)C1 (stereo partly drawn) [Example 360, (2S)-1-(cyclohexyloxy)-3-(7-phenyl-5-oxa-2-azaspiro[3.4]octan-2-yl)propan-2-ol]	130 nM	4%	–	–
